Tested on: wild-type progesterone receptor (pSG5-Gal4-DBD-PR) and its mutants
Assay type: cell-based
Settings: for activity in PR mutants as compared to wild-type PR, high ligand concentration: HeLa, Gal4-DBD-PR LBD mutants, ligand 10 μM

Structure (SMILES)	activity in PR mutants as compared to wild-type PR, high ligand concentration	activity in PR mutants as compared to wild-type PR
C[C@]12CCC(=O)C[C@@H]1CC[C@@H]1[C@@H]2CC[C@]2(C)[C@@H](O)CC[C@@H]12 [DHT, Dihydrotestosterone]	reduced activity	–
CC(=O)[C@H]1CC[C@H]2[C@@H]3CCC4=CC(=O)CC[C@]4(C)[C@H]3CC[C@]12C [STR, Progesterone]	–	lowered in all mutants
C[C@@H]1C[C@H]2[C@@H]3CCC4=CC(=O)C=C[C@]4(C)[C@@]3(F)[C@@H](O)C[C@]2(C)[C@@]1(O)C(=O)CO [DEX, Dexamethasone]	–	lowered below DMSO control by most mutations
C[C@]12CCC(=O)C=C1CC[C@@H]1[C@@H]2[C@@H](O)C[C@]2(C=O)[C@@H](C(=O)CO)CC[C@@H]12 [AS4, Aldosterone]	reduced activity	–
C[C@]12C=CC(=O)C=C1CC[C@@H]1[C@@H]2C(=O)C[C@@]2(C)[C@H]1CC[C@]2(O)C(=O)CO [PDN, Prednisone]	additional reduction	–
C[C@]12CCC(=O)C=C1CC[C@@H]1[C@@H]2[C@@H](O)C[C@@]2(C)[C@H]1CC[C@]2(O)C(=O)CO [HCY, Cortisol]	reduced activity	–

Source: PMC11151858 (RSC Chemical Biology, 2024)
